Three compounds from patent US10463610B2, “Composition comprising diacid derivatives and their use in the treatment of collagenic eye disorders” (THE UNIVERSITY OF LIVERPOOL, priority 2015, dated 2019) can be followed below.

In the experiment the test system is pig corneas. Description: Tensile test (stiffness) of pig corneas after treating whole eye globes with cross-linking solution. The following applies: Experiment 1: diacid/NHS/EDCI solution in PBS with excess EDCI, 30 minutes incubation at 37° C., n=3 (FIG. 1). The text has this: Pig eyes were collected from the abattoir on the day of slaughter. They were brought to the laboratory and any remaining soft tissue was carefully dissected away leaving just globe and the small section of optic nerve. These were washed 3 times in PBS. A drop of fluorescein dye (1% diluted 1:10 in PBS) was applied to the cornea of each eye to evaluate the integrity of the corneal epithelium (as used in the clinic). The globes were then washed again in PBS 3 times.
The globes were mounted individually on Perspex rings and placed corneal side down in 6-well cell culture plates. This ensured that the eyes were balanced stably and that the corneal surface was exposed in a controlled manner to the cross-linking solution.
Dissolve 575 mg of NHS and 775 mg of EDCI in 22.5 ml of PBS. Dissolve 500 mg Sebacic acid (decanedioic acid) or 435 mg of Suberic acid (octanedioic acid) or 365 mg of Adipic acid (hexanedioic acid) in 2.5 ml of PBS. Add each diacid solution to 22.5 ml of NHS/EDCI solution.
Experiments 2 and 3 used a Molar ratio of […] of suberic:NHS:EDCI using 319 mg NHS, 430 mg EDCI and 241 mg suberic acid. NHS/EDCI dissolved first in 7.5 ml PBS and suberic acid dissolved in 7.5 ml PBS with the addition of 500 ul DMAE to aid solubility. The two solution were added to each other and made up to 15 ml if necessary.
Add diacid/NHS/EDCI solution (4-5 ml) to 3 eyes for each diacid and add PBS (4-5 ml) to 3 eyes as control. Incubate for 30 minutes at 37° C. After 30 minutes, wash off solution with PBS (5 times).
Add suberic acid/NHS/EDCI solution (4-5 ml) to 3 eyes and add PBS (4-5 ml) to 3 eyes as control. […]
Since the cross-linking chemistry is based on EDCI/NHS mediated chemistry, the individual active moieties being used (EDCI and NHS) in the treatment solution are chemically able to crosslink proteins. The ability at which the individual chemicals are able to increase the biomechanical property of the cornea was assessed. Corneas were prepared, the masses of all the chemicals were measured out, and the corneas were treated as described above. […]
With `O=C(O)CCCCCCCCC(=O)O` [Sebacic acid, decanedioic acid], the “increase in stiffness compared to the untreated control corneas” value (“increase in stiffness” for short) was determined as 54.8%.

On to `O=C(O)CCCCC(=O)O` [adipic acid, hexanedioic acid], for which the “increase in stiffness” value is 63.6%.

In the case of `O=C(O)CCCCCCC(=O)O` [suberic acid, octanedioic acid], the “increase in stiffness” value worked out at 84.9%.
